In PubChem BioAssay AID248 (DTP/NCI, 2004):
Where “and” joins values, the source holds several entries; their conditions need not be identical. Identical values can stand only once. Toxic doses and inconclusive results are not listed. Rule as the data show it: active = T/C of 150% or more; inactive = T/C below 125%.

Test system: L1210 leukemia ip in BDF1 mice, survival T/C
Assay: NCI In Vivo Anticancer Drug Screen. Data for tumor model L1210 Leukemia (intraperitoneal) in B6D2F1 (BDF1) mice
Settings: endpoint: mean survival time, higher = longer survival
Method in brief: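 Read-out is survival time, reported as the treated-group measurement over the vehicle-control measurement.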

[1] = dose: 100.0 mg/kg/injection, schedule: Q01DX001 (ip), vehicle: saline with Tween-80
[2] = dose: 200.0 mg/kg/injection, schedule: Q01DX001 (ip), vehicle: saline with Tween-80
[3] = dose: 400.0 mg/kg/injection, schedule: Q01DX001 (ip), vehicle: saline with Tween-80
[4] = dose: 100.0 mg/kg/injection, schedule: Q01DX001 (ip), vehicle: saline
[5] = dose: 200.0 mg/kg/injection, schedule: Q01DX001 (ip), vehicle: saline
[6] = dose: 400.0 mg/kg/injection, schedule: Q01DX001 (ip), vehicle: saline
[7] = dose: 100.0 mg/kg/injection, schedule: Q04DX003 (ip), vehicle: Klucel (hydroxypropylcellulose) (HPC)
[8] = dose: 200.0 mg/kg/injection, schedule: Q04DX003 (ip), vehicle: Klucel (hydroxypropylcellulose) (HPC)
[9] = dose: 400.0 mg/kg/injection, schedule: Q04DX003 (ip), vehicle: Klucel (hydroxypropylcellulose) (HPC)
[10] = dose: 100.0 mg/kg/injection, schedule: Q01DX009 (ip), vehicle: saline
[11] = dose: 100.0 mg/kg/injection, schedule: Q04DX003 (ip), vehicle: saline
[12] = dose: 200.0 mg/kg/injection, schedule: Q01DX009 (ip), vehicle: saline
[13] = dose: 200.0 mg/kg/injection, schedule: Q04DX003 (ip), vehicle: saline
[14] = dose: 400.0 mg/kg/injection, schedule: Q04DX003 (ip), vehicle: saline
[15] = dose: 50.0 mg/kg/injection, schedule: Q01DX009 (ip), vehicle: Klucel (hydroxypropylcellulose) (HPC)
[16] = dose: 100.0 mg/kg/injection, schedule: Q01DX009 (ip), vehicle: Klucel (hydroxypropylcellulose) (HPC)
[17] = dose: 200.0 mg/kg/injection, schedule: Q01DX009 (ip), vehicle: Klucel (hydroxypropylcellulose) (HPC)
[18] = dose: 50.0 mg/kg/injection, schedule: Q04DX003 (ip), vehicle: saline

Measured: T/C

CS(=O)(=O)CC(=O)c1ccc(O)cc1O
inactive: [1] 106 % of control | [2] 103 % of control | [3] 95 % of control

Nc1c[nH]c(=O)[nH]c1=O
inactive: [4] 89 % of control | [5] 95 % of control | [6] 97 % of control

O=C(C(=O)c1ccc([N+](=O)[O-])cc1)c1ccccc1
inactive: [7] 97 % of control | [8] 100 % of control | [9] 94 % of control

CC1=C(Sc2ccccc2)c2ccccc2C1
inactive: [4] 86 % of control | [5] 91 % of control | [6] 91 % of control

O=C1CC(c2ccccc2Cl)N(S(=O)(=O)c2ccccc2)N1 (centres undefined)
inactive: [10] 112 % of control | [11] 104 % of control | [12] 107 % of control | [13] 102 % of control | dose: 400.0 mg/kg/injection, schedule: Q01DX009 (ip), vehicle: saline 106 % of control | [14] 102 % of control

O=C1C(C2(O)C(=O)Nc3ccccc32)CCCC1C1(O)C(=O)Nc2ccccc21 (centres undefined)
inactive: [15] 97 % of control | [16] 104 % of control | [17] 101 % of control

CC(=O)NC(CO)C(O)c1ccc([N+](=O)[O-])cc1 (centres undefined)
inactive: [1] 101 % of control | dose: 100.0 mg/kg/injection, schedule: Q04DX002 (ip), vehicle: saline with Tween-80 87 % of control | [2] 87 % of control | dose: 200.0 mg/kg/injection, schedule: Q04DX002 (ip), vehicle: saline with Tween-80 94 % of control | [3] 97 % of control | dose: 400.0 mg/kg/injection, schedule: Q04DX002 (ip), vehicle: saline with Tween-80 100 % of control

COc1cc([N+](=O)[O-])ccc1C(=O)NC(CCC(=O)O)C(=O)O (centres undefined)
inactive: dose: 100.0 mg/kg/injection, schedule: Q01DX001 (ip), vehicle: Klucel (hydroxypropylcellulose) (HPC) 95 % of control | dose: 200.0 mg/kg/injection, schedule: Q01DX001 (ip), vehicle: Klucel (hydroxypropylcellulose) (HPC) 106 % of control | dose: 400.0 mg/kg/injection, schedule: Q01DX001 (ip), vehicle: Klucel (hydroxypropylcellulose) (HPC) 100 % of control

O=C(NO)Nc1ccc([N+](=O)[O-])cc1
inactive: [1] 97 % of control | dose: 100.0 mg/kg/injection, schedule: Q01DX009 (ip), vehicle: saline with Tween-80 93 % of control | [2] 90 % of control | dose: 200.0 mg/kg/injection, schedule: Q01DX009 (ip), vehicle: saline with Tween-80 89 % of control | [3] 99 % of control | dose: 400.0 mg/kg/injection, schedule: Q01DX009 (ip), vehicle: saline with Tween-80 98 % of control

OCC1CC2CC(O)C1C2 (centres undefined)
inactive: dose: 75.0 mg/kg/injection, schedule: Q01DX001 (ip), vehicle: saline 100 % of control and 110 % of control | dose: 150.0 mg/kg/injection, schedule: Q01DX001 (ip), vehicle: saline 108 % of control

Cc1cc(=O)[nH]c2ccccc12
inactive: dose: 100.0 mg/kg/injection, schedule: Q04DX003 (ip), vehicle: saline with Tween-80 91 % of control | dose: 200.0 mg/kg/injection, schedule: Q04DX003 (ip), vehicle: saline with Tween-80 95 % of control

NC(=S)c1ccc(N)cc1
inactive: dose: 12.5 mg/kg/injection, schedule: Q04DX003 (ip), vehicle: saline 105 % of control | dose: 25.0 mg/kg/injection, schedule: Q04DX003 (ip), vehicle: saline 103 % of control | [18] 97 % of control and 102 % of control | dose: 75.0 mg/kg/injection, schedule: Q04DX003 (ip), vehicle: saline 106 % of control | dose: 115.0 mg/kg/injection, schedule: Q04DX003 (ip), vehicle: saline 97 % of control

O=C1c2cc(-c3ccccc3)ccc2C(c2ccccc2)C1NC1CCCCC1 (centres undefined)
inactive: dose: 37.5 mg/kg/injection, schedule: Q01DX001 (ip), vehicle: Klucel (hydroxypropylcellulose) (HPC) 89 % of control | dose: 75.0 mg/kg/injection, schedule: Q01DX001 (ip), vehicle: Klucel (hydroxypropylcellulose) (HPC) 89 % of control | dose: 150.0 mg/kg/injection, schedule: Q01DX001 (ip), vehicle: Klucel (hydroxypropylcellulose) (HPC) 89 % of control

O=[N+]([O-])c1ccc(I)c(F)c1
inactive: [7] 100 % of control | [8] 100 % of control | [9] 104 % of control

N#Cc1ccc2c(c1)C([P+](c1ccccc1)(c1ccccc1)c1ccccc1)c1ccccc1-2 (centres undefined)
inactive: dose: 75.0 mg/kg/injection, schedule: Q01DX001 (ip), vehicle: carboxymethylcellulose (CMC) 88 % of control | dose: 300.0 mg/kg/injection, schedule: Q01DX001 (ip), vehicle: carboxymethylcellulose (CMC) 92 % of control

O=C1c2c(ccc3ccccc23)CCC1Br (centres undefined)
inactive: [7] 97 % of control | [8] 101 % of control | [9] 103 % of control

Cc1ccc(S(=O)(=O)N(c2cc(C)ccc2C)c2ccccc2[N+](=O)[O-])cc1
inactive: dose: 50.0 mg/kg/injection, schedule: Q01DX001 (ip), vehicle: carboxymethylcellulose (CMC) 98 % of control | dose: 100.0 mg/kg/injection, schedule: Q01DX001 (ip), vehicle: carboxymethylcellulose (CMC) 91 % of control | dose: 200.0 mg/kg/injection, schedule: Q01DX001 (ip), vehicle: carboxymethylcellulose (CMC) 96 % of control | dose: 400.0 mg/kg/injection, schedule: Q01DX001 (ip), vehicle: carboxymethylcellulose (CMC) 98 % of control

NN(CC1=COc2ccccc2O1)Cc1ccccc1
inactive: dose: 25.0 mg/kg/injection, schedule: Q01DX009 (ip), vehicle: Klucel (hydroxypropylcellulose) (HPC) 100 % of control | dose: 25.0 mg/kg/injection, schedule: Q04DX003 (ip), vehicle: Klucel (hydroxypropylcellulose) (HPC) 92 % of control | [15] 94 % of control | dose: 50.0 mg/kg/injection, schedule: Q04DX003 (ip), vehicle: Klucel (hydroxypropylcellulose) (HPC) 92 % of control | [16] 96 % of control | [7] 92 % of control | [17] 95 % of control | [8] 95 % of control | [9] 97 % of control

O=[N+]([O-])c1cccc(S(=O)(=O)O)c1
inactive: dose: 50.0 mg/kg/injection, schedule: Q01DX009 (ip), vehicle: saline 93 % of control | [18] 97 % of control | [10] 87 % of control | [11] 96 % of control and 100 % of control | [12] 93 % of control | [13] 100 % of control and 102 % of control | [14] 90 % of control

CN(CCC#N)C(=O)Nc1ccccc1
inactive: dose: 100.0 mg/kg/injection, schedule: Q01DX Z (ip), vehicle: methylcellulose (MC) 103 % of control | dose: 200.0 mg/kg/injection, schedule: Q01DX Z (ip), vehicle: methylcellulose (MC) 95 % of control

CCSCC(O)CCl (centres undefined)
inactive: dose: 37.5 mg/kg/injection, schedule: Q04DX002 (ip), vehicle: saline 103 % of control | dose: 37.5 mg/kg/injection, schedule: Q04DX003 (ip), vehicle: Klucel (hydroxypropylcellulose) (HPC) 115 % of control | dose: 75.0 mg/kg/injection, schedule: Q04DX002 (ip), vehicle: saline 107 % of control | dose: 75.0 mg/kg/injection, schedule: Q04DX003 (ip), vehicle: Klucel (hydroxypropylcellulose) (HPC) 105 % of control | dose: 150.0 mg/kg/injection, schedule: Q04DX002 (ip), vehicle: saline 100 % of control | dose: 150.0 mg/kg/injection, schedule: Q04DX003 (ip), vehicle: Klucel (hydroxypropylcellulose) (HPC) 98 % of control
